{"source": "patent EP4627105B1", "about": "“METHOD FOR IDENTIFYING A MODIFIED AMINO ACID DEGRON (MAAD)” (ETH Zurich, priority 2022, dated 2024)", "system": "K562 cells", "test": "Fluorescent in-cell reporter (FLICR) protein stability assay: turnover of C-terminally amidated sfGFP after nucleofection, followed by flow cytometry", "assay_type": "cell-based, human", "conditions": "for destabilization of sfGFP carrying a primary amide on its C-terminus (sfGFP-Pep1-Ser-NH2): Fig. 1C, inhibitor concentration not given; for Amidated sfGFP degradation: Fig. 2G", "protocol": "HEK293T cells were cultured in DMEM containing Glutamax (Thermo Fisher Scientific) and K562 cells were cultured in RPMI 1640 containing Glutamax (Thermo Fisher Scientific) under standard conditions. Growth media were further supplemented with 10% (v/v) Fetal Bovine Serum (Thermo Fisher Scientific) and 100 U/ml Penicillin-Streptomycin (Thermo Fisher Scientific). Stably transduced cells were selected using 2 µg/ml Puromycin (Thermo Fisher Scientific), 500 µg/ml Gene-ticin (Thermo Fisher Scientific) or 10 µg/ml Blasticidin (Thermo Fisher Scientific) starting two days after transduction. Induction of doxycycline-dependent vectors was performed using 500 ng/ml doxycycline (Merck) every 48 hours. Cells were treated with epoxomicin (Merck), concanamycin A (Merck) or TAK243 (MedChem Express) as indicated.\nFor measuring stability of recombinant or semi-synthetic proteins, 1.5- 2.0 x 10^5 cells were nucleofected with 200 pmol of protein in 20 µl cuvettes using a 4D nucleofector device (Lonza) according to the manufacturer's recommendations. Following protein delivery, cells were left to recover at 37°C for 30-45 minutes before measuring initial mean fluorescence intensity values (t0) on a Attune NxT Flow Cytometer (Thermo Fisher Scientific). Subsequent measurements were performed at indicated time points. Baseline-fluorescence values of mock nucleofected cells receiving no protein were measured and subtracted for each time point and baseline-corrected fluorescence values were normalized to t0.\nThe effect of each modification on protein degradation was measured in the human erythroleukemia cell line K562, which allows for efficient and uniform protein delivery via nucleofection.\nLastly, conjugates of mTagBFP2 and mCherry carrying a primary C-terminal amide were also efficiently degraded when delivered to human embryonic kidney-derived HEK293T cells (Fig.1D and Fig 1E) establishing that C-terminal amidation induces protein degradation in different amino acid-, protein- and cell contexts.\nThe effect of each modification on protein degradation in the human erythroleukemia cell line K562 was measured. A fluorescent in-cell reporter assay was performed, in which individual semi-synthetic proteins were introduced by electroporation into human cells and their clearance over time was followed by flow cytometry.\nThis implies that C-terminal amide-bearing proteins (CTAPs) are actively cleared from cells by the ubiquitin proteasome system. CTAP forms of both mCherry and mTagBFP2, but not their unmodified counterparts, were also efficiently degraded when delivered to human embryonic kidney-derived HEK293T cells, as shown in Fig. 2H (see also the explanations above relating to Fig. 1E). The presence of a C-terminal amide is therefore sufficient to induce protein degradation in different peptide-, protein- and cell contexts.", "data": [{"smiles": "NS(=O)(=O)OC[C@H]1C[C@@H](Nc2ccnc3cc(-c4cccc(SC(F)(F)F)c4)nn23)[C@H](O)[C@@H]1O", "note": "[TAK243]", "values": [{"measurement": "destabilization of sfGFP carrying a primary amide on its C-terminus (sfGFP-Pep1-Ser-NH2)", "value": "fully blunted"}, {"measurement": "Amidated sfGFP degradation", "setting": "TAK243 (1 µM) upon sfGFP delivery", "value": "prevented"}]}, {"smiles": "C/C=C/[C@H]1O[C@@](O)([C@@H](C)[C@H](O)[C@H](C)[C@H]2OC(=O)/C(OC)=C/C(C)=C/[C@@H](C)[C@@H](O)[C@@H](CC)[C@@H](O)[C@H](C)C/C(C)=C/C=C/[C@@H]2OC)C[C@@H](O[C@H]2C[C@@H](O)[C@H](OC(N)=O)[C@@H](C)O2)[C@@H]1C", "note": "[concanamycin A]", "values": [{"measurement": "destabilization of sfGFP carrying a primary amide on its C-terminus (sfGFP-Pep1-Ser-NH2)", "value": "not by inhibition of lysosomal acidification"}, {"measurement": "Amidated sfGFP degradation", "setting": "Folimycin (100 nM) upon sfGFP delivery", "value": "not by inhibition of lysosomal acidification"}]}, {"smiles": "CC[C@H](C)[C@H](NC(=O)[C@H]([C@@H](C)CC)N(C)C(C)=O)C(=O)N[C@H](C(=O)N[C@@H](CC(C)C)C(=O)[C@@]1(C)CO1)[C@@H](C)O", "note": "[epoxomicin]", "values": [{"measurement": "destabilization of sfGFP carrying a primary amide on its C-terminus (sfGFP-Pep1-Ser-NH2)", "value": "fully blunted"}, {"measurement": "Amidated sfGFP degradation", "setting": "epoxomicin (500 nM) upon sfGFP delivery", "value": "prevented"}]}]}
